Measurements from the supplement of paper PMC10627819.

Legend:
B. subtilis 168 [1] = experiment: fitness (endpoint OD595 vs no drug) (fraction); higher = more growth
Procedure, shortened: (§1)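 Bacterial fitness was scored as optical density at the stationary-phase transition relative to the robust mean of no-drug control wells. Scores are capped at 1. The growth data were OD595 readings every 30 min for 14 h at 37 °C, background-subtracted against the first reading, from 384-well plates inoculated at OD595 0.01 in TSB, LB Lennox or CY.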

S. aureus DSM 20231 [2] = experiment: as above
Procedure, shortened: as §1

S. pneumoniae D39V [3] = experiment: as above
Procedure, shortened: as §1

S. aureus Newman [4] = experiment: as above
Procedure, shortened: as §1

B. subtilis 168 [5] = experiment: Bliss interaction score (quartile over a dose matrix) (fitness difference); higher = more antagonism (negative = synergy)
Procedure, shortened: (§2)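 Each plate was normalised to the robust mean of its own no-drug wells, using OD595 at entry into stationary phase, with values capped at 1. This normalised growth is the fitness value. The Bliss score is the difference between observed and product-expected fitness, with single-drug fitness inferred from the combination data and quartiles taken over technical, biological and donor/recipient replicates.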

S. aureus DSM 20231 [6] = experiment: as above
Procedure, shortened: as §2

S. pneumoniae D39V [7] = experiment: as above
Procedure, shortened: as §2

S. aureus Newman [8] = experiment: as above
Procedure, shortened: as §2
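Throughout, for Bliss interaction score (quartile over a dose matrix): first quartile when negative (synergy) and third quartile when positive (antagonism).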

Cc1ncc([N+](=O)[O-])n1CCO [Metronidazole] + CC1=C\[C@@H](O)CC(=O)Cc2nc(co2)C(=O)N2CCC=C2C(=O)O[C@H](C(C)C)[C@H](C)/C=C/C(=O)NC\C=C\1 [Virginiamycin M1]
Conditions	fitness
B. subtilis 168 [1], first compound 0.625 µg/mL, partner 0.0625 µg/mL	0.995
B. subtilis 168 [1], first compound 0.625 µg/mL, partner 0.125 µg/mL	0.946
B. subtilis 168 [1], first compound 0.625 µg/mL, partner 0.25 µg/mL	0.956
B. subtilis 168 [1], first compound 1.25 µg/mL, partner 0.0625 µg/mL	0.951
B. subtilis 168 [1], first compound 1.25 µg/mL, partner 0.125 µg/mL	0.938
B. subtilis 168 [1], first compound 1.25 µg/mL, partner 0.25 µg/mL	≥ 1
B. subtilis 168 [1], first compound 2.5 µg/mL, partner 0.0625 µg/mL	0.929
B. subtilis 168 [1], first compound 2.5 µg/mL, partner 0.125 µg/mL	0.944
B. subtilis 168 [1], first compound 2.5 µg/mL, partner 0.25 µg/mL	0.96
S. aureus DSM 20231 [2], first compound 0.625 µg/mL, partner 0.0625 µg/mL	≥ 1
S. aureus DSM 20231 [2], first compound 0.625 µg/mL, partner 0.125 µg/mL	≥ 1
S. aureus DSM 20231 [2], first compound 0.625 µg/mL, partner 0.25 µg/mL	≥ 1
S. aureus DSM 20231 [2], first compound 1.25 µg/mL, partner 0.0625 µg/mL	≥ 1
S. aureus DSM 20231 [2], first compound 1.25 µg/mL, partner 0.125 µg/mL	≥ 1
S. aureus DSM 20231 [2], first compound 1.25 µg/mL, partner 0.25 µg/mL	≥ 1
S. aureus DSM 20231 [2], first compound 2.5 µg/mL, partner 0.0625 µg/mL	≥ 1
S. aureus DSM 20231 [2], first compound 2.5 µg/mL, partner 0.125 µg/mL	≥ 1
S. aureus DSM 20231 [2], first compound 2.5 µg/mL, partner 0.25 µg/mL	≥ 1
S. aureus Newman [4], first compound 0.625 µg/mL, partner 0.0625 µg/mL	0.97
S. aureus Newman [4], first compound 0.625 µg/mL, partner 0.125 µg/mL	0.973
S. aureus Newman [4], first compound 0.625 µg/mL, partner 0.25 µg/mL	0.975
S. aureus Newman [4], first compound 1.25 µg/mL, partner 0.0625 µg/mL	0.984
S. aureus Newman [4], first compound 1.25 µg/mL, partner 0.125 µg/mL	0.993
S. aureus Newman [4], first compound 1.25 µg/mL, partner 0.25 µg/mL	≥ 1
S. aureus Newman [4], first compound 2.5 µg/mL, partner 0.0625 µg/mL	0.992
S. aureus Newman [4], first compound 2.5 µg/mL, partner 0.125 µg/mL	≥ 1
S. aureus Newman [4], first compound 2.5 µg/mL, partner 0.25 µg/mL	0.991
S. pneumoniae D39V [3], first compound 1.073 µg/mL, partner 0.5 µg/mL	≥ 1
S. pneumoniae D39V [3], first compound 1.073 µg/mL, partner 1 µg/mL	≥ 1
S. pneumoniae D39V [3], first compound 1.073 µg/mL, partner 2 µg/mL	≥ 1
S. pneumoniae D39V [3], first compound 1.25 µg/mL, partner 2 µg/mL	0.944
S. pneumoniae D39V [3], first compound 2.145 µg/mL, partner 0.5 µg/mL	0.912
S. pneumoniae D39V [3], first compound 2.145 µg/mL, partner 1 µg/mL	0.945
S. pneumoniae D39V [3], first compound 2.145 µg/mL, partner 2 µg/mL	0.877
S. pneumoniae D39V [3], first compound 2.5 µg/mL, partner 2 µg/mL	0.94
S. pneumoniae D39V [3], first compound 4.29 µg/mL, partner 0.5 µg/mL	≥ 1
S. pneumoniae D39V [3], first compound 4.29 µg/mL, partner 1 µg/mL	0.994
S. pneumoniae D39V [3], first compound 4.29 µg/mL, partner 2 µg/mL	≥ 1
S. pneumoniae D39V [3], first compound 5 µg/mL, partner 2 µg/mL	0.946

fitness, one replicate
Conditions	first compound 0.625 µg/mL	first compound 1.25 µg/mL	first compound 2.5 µg/mL	first compound 5 µg/mL
S. aureus DSM 20231 [2], partner 0.5 µg/mL	0.825	0.842	0.978	–
S. aureus DSM 20231 [2], partner 1 µg/mL	0.725	0.827	0.908	–
S. aureus Newman [4], partner 0.5 µg/mL	0.902	0.899	0.89	–
S. aureus Newman [4], partner 1 µg/mL	0.912	0.922	≥ 1	–
S. aureus Newman [4], partner 2 µg/mL	0.919	0.919	0.949	–
S. pneumoniae D39V [3], partner 0.15 µg/mL	–	≥ 1	≥ 1	≥ 1
S. pneumoniae D39V [3], partner 0.3 µg/mL	–	≥ 1	0.987	0.96
S. pneumoniae D39V [3], partner 0.5 µg/mL	–	≥ 1	0.973	≥ 1
S. pneumoniae D39V [3], partner 1 µg/mL	–	≥ 1	≥ 1	≥ 1

Conditions	Bliss interaction score
B. subtilis 168 [5]	-0.0294
S. aureus DSM 20231 [6]	0.0516
S. aureus Newman [8]	0.0634
S. pneumoniae D39V [7]	0.0226

Cc1ncc([N+](=O)[O-])n1CCO [Metronidazole] + CCN(CC)CCOC(=O)c1ccc(N)cc1 [Procaine]
fitness
Conditions	partner 85.5 µg/mL	partner 171 µg/mL	partner 342 µg/mL
B. subtilis 168 [1], first compound 0.625 µg/mL	0.94	0.944	0.876
B. subtilis 168 [1], first compound 1.25 µg/mL	0.935	0.956	0.937
B. subtilis 168 [1], first compound 2.5 µg/mL	0.896	0.868	0.958
S. aureus DSM 20231 [2], first compound 0.625 µg/mL	0.996	≥ 1	≥ 1
S. aureus DSM 20231 [2], first compound 1.25 µg/mL	0.977	≥ 1	≥ 1
S. aureus DSM 20231 [2], first compound 2.5 µg/mL	0.938	≥ 1	≥ 1
S. aureus Newman [4], first compound 0.625 µg/mL	0.934	0.934	0.686
S. aureus Newman [4], first compound 1.25 µg/mL	0.858	0.988	–
S. aureus Newman [4], first compound 2.5 µg/mL	0.814	0.876	–
S. pneumoniae D39V [3], first compound 1.073 µg/mL	0.979	0.969	0.939
S. pneumoniae D39V [3], first compound 2.145 µg/mL	0.911	0.948	0.89
S. pneumoniae D39V [3], first compound 4.29 µg/mL	0.914	0.894	0.927

fitness, one replicate
Conditions	first compound 0.781 µg/mL	first compound 1.25 µg/mL	first compound 1.562 µg/mL	first compound 2.5 µg/mL	first compound 3.124 µg/mL	first compound 5 µg/mL
S. aureus Newman [4], partner 85.5 µg/mL	≥ 1	–	≥ 1	–	≥ 1	–
S. aureus Newman [4], partner 171 µg/mL	≥ 1	–	≥ 1	–	≥ 1	–
S. aureus Newman [4], partner 342 µg/mL	≥ 1	–	≥ 1	–	≥ 1	–
S. pneumoniae D39V [3], partner 85.5 µg/mL	–	≥ 1	–	≥ 1	–	0.979
S. pneumoniae D39V [3], partner 171 µg/mL	–	≥ 1	–	≥ 1	–	≥ 1
S. pneumoniae D39V [3], partner 342 µg/mL	–	0.952	–	≥ 1	–	0.95

Conditions	Bliss interaction score
B. subtilis 168 [5]	-0.0393
S. aureus DSM 20231 [6]	0.0477
S. aureus Newman [8]	0.0807
S. pneumoniae D39V [7]	-0.0526
